What was measured:
in vitro [1] = conditions: rat, liver microsomes
[2] = AUC(0 to infinity) in Sprague-Dawley rat at 1 mg/kg, iv and measured upto 24 hrs by LC-MS analysis; assay type: ADME, organism-based; set-up: time < 24 hrs, dose 1 mg/kg, route iv; conditions: in vivo
in vitro [3] = conditions: rat, liver microsomes; remark: listed apart in the source
LoVo [4] = experiment: Antiproliferative activity against ATM-deficient human LoVo cells assessed as reduction in cell proliferation at 0.1 to 25 uM incubated for 3 days by MTT assay; assay type: functional, cell-based; conditions: dose 0.1-25 µM, time 3.0 day
LoVo [5] = experiment: Antiproliferative activity against ATM-deficient human LoVo cells assessed as reduction in cell proliferation incubated for 3 days by MTT assay; assay type: functional, cell-based; conditions: 72 h
[6] = Cmax in Sprague-Dawley rat at 5 mg/kg, po and measured upto 24 hrs by LC-MS analysis; assay type: ADME, organism-based; set-up: time < 24 hrs, dose 5 mg/kg, route po; conditions: in vivo
[7] = AUC (0 to infinity) in Sprague-Dawley rat at 5 mg/kg, po and measured upto 24 hrs by LC-MS analysis; assay type: ADME, organism-based; set-up: time < 24 hrs, dose 5 mg/kg, route po; conditions: in vivo
[8] = MRT (0 to infinity) in Sprague-Dawley rat at 1 mg/kg, iv and measured upto 24 hrs by LC-MS analysis; assay type: ADME, organism-based; conditions: in vivo
[9] = AUCt in Sprague-Dawley rat at 5 mg/kg, po and measured upto 24 hrs by LC-MS analysis; assay type: ADME, organism-based; set-up: time < 24 hrs, dose 5 mg/kg, route po; conditions: in vivo
in vitro [10] = conditions: rat, liver microsomes; remark: listed apart in the source
[11] = target: T1, Serine/threonine-protein kinase ATR (Homo sapiens, UniProt Q13535); experiment: Inhibition of ATR (unknown origin) using peptide as substrate preincubated for 10 mins followed by substrate addition by microplate reader analysis
Target sequence in this assay (Q13535 whole entry): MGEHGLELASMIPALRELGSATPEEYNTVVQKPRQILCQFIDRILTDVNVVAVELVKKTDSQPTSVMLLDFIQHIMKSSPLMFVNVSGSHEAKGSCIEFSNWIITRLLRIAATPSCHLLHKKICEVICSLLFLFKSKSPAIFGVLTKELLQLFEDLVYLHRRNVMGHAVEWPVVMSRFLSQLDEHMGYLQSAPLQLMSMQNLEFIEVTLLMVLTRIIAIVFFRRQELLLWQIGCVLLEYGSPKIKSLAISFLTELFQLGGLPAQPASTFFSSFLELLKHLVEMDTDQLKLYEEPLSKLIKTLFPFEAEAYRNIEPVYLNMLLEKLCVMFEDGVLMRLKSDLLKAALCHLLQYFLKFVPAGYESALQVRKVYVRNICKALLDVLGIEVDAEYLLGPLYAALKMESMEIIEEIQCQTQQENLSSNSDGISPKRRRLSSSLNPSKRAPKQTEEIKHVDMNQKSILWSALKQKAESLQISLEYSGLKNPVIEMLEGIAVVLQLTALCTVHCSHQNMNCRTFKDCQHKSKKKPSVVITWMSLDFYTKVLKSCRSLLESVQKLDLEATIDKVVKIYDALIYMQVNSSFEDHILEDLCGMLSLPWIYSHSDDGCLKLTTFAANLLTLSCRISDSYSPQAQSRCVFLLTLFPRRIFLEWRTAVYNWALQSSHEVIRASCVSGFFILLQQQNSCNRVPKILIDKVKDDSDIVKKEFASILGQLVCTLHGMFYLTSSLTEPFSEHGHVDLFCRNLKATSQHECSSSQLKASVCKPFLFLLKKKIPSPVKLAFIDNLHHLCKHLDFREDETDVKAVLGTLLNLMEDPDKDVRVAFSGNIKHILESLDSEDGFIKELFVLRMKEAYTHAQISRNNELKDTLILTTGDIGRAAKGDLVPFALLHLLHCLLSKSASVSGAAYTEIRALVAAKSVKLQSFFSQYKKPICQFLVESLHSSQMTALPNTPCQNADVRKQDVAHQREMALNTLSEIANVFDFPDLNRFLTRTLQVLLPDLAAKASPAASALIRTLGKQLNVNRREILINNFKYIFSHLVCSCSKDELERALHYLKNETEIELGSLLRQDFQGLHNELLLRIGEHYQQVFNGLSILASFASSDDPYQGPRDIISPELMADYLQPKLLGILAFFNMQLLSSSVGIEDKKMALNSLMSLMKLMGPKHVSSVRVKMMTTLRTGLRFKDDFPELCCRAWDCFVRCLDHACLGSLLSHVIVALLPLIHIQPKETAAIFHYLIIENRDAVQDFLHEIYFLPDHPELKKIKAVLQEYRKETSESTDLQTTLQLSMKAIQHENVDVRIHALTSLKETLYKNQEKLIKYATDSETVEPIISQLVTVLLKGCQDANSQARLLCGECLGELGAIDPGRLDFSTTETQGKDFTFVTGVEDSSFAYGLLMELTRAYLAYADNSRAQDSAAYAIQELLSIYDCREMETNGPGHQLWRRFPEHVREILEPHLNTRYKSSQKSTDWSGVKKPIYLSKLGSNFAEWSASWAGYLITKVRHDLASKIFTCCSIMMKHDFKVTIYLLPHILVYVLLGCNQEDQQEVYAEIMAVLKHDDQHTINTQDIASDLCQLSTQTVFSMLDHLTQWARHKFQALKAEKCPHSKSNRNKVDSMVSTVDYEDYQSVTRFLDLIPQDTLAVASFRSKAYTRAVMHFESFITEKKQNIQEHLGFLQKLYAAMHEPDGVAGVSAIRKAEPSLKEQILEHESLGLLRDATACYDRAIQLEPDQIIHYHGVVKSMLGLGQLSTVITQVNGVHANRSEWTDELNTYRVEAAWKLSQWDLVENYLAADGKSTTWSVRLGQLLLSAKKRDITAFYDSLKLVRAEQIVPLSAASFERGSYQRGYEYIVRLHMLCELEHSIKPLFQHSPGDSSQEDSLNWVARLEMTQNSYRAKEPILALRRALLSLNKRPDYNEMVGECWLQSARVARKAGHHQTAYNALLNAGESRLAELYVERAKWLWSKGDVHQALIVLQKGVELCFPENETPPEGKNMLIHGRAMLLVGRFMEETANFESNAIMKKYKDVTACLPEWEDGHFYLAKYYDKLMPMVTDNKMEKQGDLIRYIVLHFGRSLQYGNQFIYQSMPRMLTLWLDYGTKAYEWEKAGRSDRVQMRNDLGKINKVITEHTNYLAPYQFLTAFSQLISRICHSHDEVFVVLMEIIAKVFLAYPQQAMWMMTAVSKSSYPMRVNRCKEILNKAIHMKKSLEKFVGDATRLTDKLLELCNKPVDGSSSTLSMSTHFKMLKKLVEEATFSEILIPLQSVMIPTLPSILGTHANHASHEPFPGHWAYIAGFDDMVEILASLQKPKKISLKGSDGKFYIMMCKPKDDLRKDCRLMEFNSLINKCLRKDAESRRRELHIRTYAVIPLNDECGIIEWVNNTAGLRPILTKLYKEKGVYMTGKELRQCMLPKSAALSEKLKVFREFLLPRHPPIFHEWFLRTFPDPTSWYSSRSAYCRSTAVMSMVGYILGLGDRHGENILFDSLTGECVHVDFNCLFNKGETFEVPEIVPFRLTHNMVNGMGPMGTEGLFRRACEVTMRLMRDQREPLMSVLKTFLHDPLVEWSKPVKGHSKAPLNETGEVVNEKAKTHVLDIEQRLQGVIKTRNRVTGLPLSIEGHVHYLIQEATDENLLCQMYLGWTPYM

[12] = AUCt in Sprague-Dawley rat at 1 mg/kg, iv and measured upto 24 hrs by LC-MS analysis; assay type: ADME, organism-based; set-up: dose 1 mg/kg, time < 24 hrs, route iv; conditions: in vivo
[13] = Volume of distribution at steady state in Sprague-Dawley rat at 1 mg/kg, iv and measured upto 24 hrs by LC-MS analysis; assay type: ADME, organism-based; conditions: in vivo, read-out: Vdss
in vitro [14] = conditions: human, liver microsomes
[15] = Oral bioavailability in Sprague-Dawley rat at 5 mg/kg and measured upto 24 hrs by LC-MS analysis; assay type: ADME, organism-based; conditions: in vivo
in vitro [16] = conditions: human, liver microsomes; remark: listed apart in the source
[17] = MRT(t) in Sprague-Dawley rat at 1 mg/kg, iv and measured upto 24 hrs by LC-MS analysis; assay type: ADME, organism-based; conditions: in vivo
in vitro [18] = conditions: human, liver microsomes; remark: listed apart in the source
[19] = Tmax in Sprague-Dawley rat at 5 mg/kg, po and measured upto 24 hrs by LC-MS analysis; assay type: ADME, organism-based; conditions: in vivo
HT-29 [20] = experiment: Antiproliferative activity against ATM-proficient human HT-29 cells assessed as reduction in cell proliferation incubated for 3 days by MTT assay; assay type: functional, cell-based; conditions: HT-29, 72 h
[21] = Half life in Sprague-Dawley rat at 5 mg/kg, po and measured upto 24 hrs by LC-MS analysis; assay type: ADME, organism-based; conditions: in vivo
[22] = Half life in Sprague-Dawley rat at 1 mg/kg, iv and measured upto 24 hrs by LC-MS analysis; assay type: ADME, organism-based; conditions: in vivo
HT-29 [23] = experiment: Antiproliferative activity against ATM-proficient human HT-29 cells assessed as reduction in cell proliferation at 0.5 to 22 uM incubated for 3 days by MTT assay; assay type: functional, cell-based; conditions: dose 0.5-22 µM, time 3.0 day
[24] = MRT(t) in Sprague-Dawley rat at 5 mg/kg, po and measured upto 24 hrs by LC-MS analysis; assay type: ADME, organism-based; conditions: in vivo
[25] = MRT (0 to infinity) in Sprague-Dawley rat at 5 mg/kg, po and measured upto 24 hrs by LC-MS analysis; assay type: ADME, organism-based; conditions: in vivo
[26] = Clearance in Sprague-Dawley rat at 1 mg/kg, iv and measured upto 24 hrs by LC-MS analysis; assay type: ADME, organism-based; conditions: in vivo
MDA-MB-231 [27] = experiment: Antiproliferative activity against human MDA-MB-231 cells assessed as reduction in cell viability incubated for 3 days by MTT assay; assay type: functional, cell-based; conditions: MDA-MB-231, 72 h
MCF7 [28] = experiment: Antiproliferative activity against human MCF7 cells assessed as reduction in cell viability incubated for 3 days by MTT assay; assay type: functional, cell-based; conditions: MCF7, 72 h
A549 [29] = experiment: Antiproliferative activity against ATM-proficient human A549 cells assessed as reduction in cell viability incubated for 3 days by MTT assay; assay type: functional, cell-based; conditions: A549, 72 h
HCT-116 [30] = experiment: Antiproliferative activity against ATM-proficient human HCT-116 cells assessed as reduction in cell viability incubated for 3 days by MTT assay; assay type: functional, cell-based; conditions: HCT-116, 72 h
[31] = target: T1, Serine/threonine-protein kinase ATR; experiment: Inhibition of ATR (unknown origin) using peptide as substrate at 0.1 uM preincubated for 10 mins followed by substrate addition by microplate reader analysis
Target sequence in this assay (Q13535 whole entry, looked up): as the sequence (Q13535 whole entry) above

[32] = target: Serine/threonine-protein kinase mTOR (Homo sapiens, UniProt P42345); experiment: Inhibition of mTOR (unknown origin) using peptide as substrate preincubated for 10 mins followed by substrate addition by microplate reader analysis
HCT-116 [33] = experiment: Synergistic antiproliferative activity against ATM-proficient human HCT-116 cells assessed as reduction in cell viability incubated for 3 days in presence of cisplatin by MTT assay; assay type: functional, cell-based; conditions: HCT-116, 72 h
HCT-116 [34] = experiment: Synergistic antiproliferative activity against ATM-proficient human HCT-116 cells assessed as reduction in cell viability incubated for 3 days in presence of oxaliplatin by MTT assay; assay type: functional, cell-based; conditions: HCT-116, 72 h
HT-29 [35] = experiment: Antiproliferative activity against ATM-proficient human HT-29 cells assessed as reduction in cell viability incubated for 3 days in presence of AZD-1390 by MTT assay; assay type: functional, cell-based; conditions: HT-29, 72 h
A549 [36] = experiment: Antiproliferative activity against ATM-proficient human A549 cells assessed as reduction in cell viability incubated for 3 days in presence of AZD-1390 by MTT assay; assay type: functional, cell-based; conditions: A549, 72 h
HCT-116 [37] = experiment: Antiproliferative activity against ATM-proficient human HCT-116 cells assessed as reduction in cell viability incubated for 3 days in presence of AZD-1390 by MTT assay; assay type: functional, cell-based; conditions: HCT-116, 72 h
MDA-MB-231 [38] = experiment: Synergistic antiproliferative activity against human MDA-MB-231 cells assessed as reduction in cell viability incubated for 3 days in presence of olaparib by MTT assay; assay type: functional, cell-based; conditions: MDA-MB-231, 72 h
OVCAR-3 = experiment: Antiproliferative activity against ATM-deficient human OVCAR-3 cells assessed as reduction in cell viability incubated for 3 days by MTT assay; assay type: functional, cell-based; conditions: OVCAR-3, 72 h
MCF7 [39] = experiment: Synergistic antiproliferative activity against human MCF7 cells assessed as reduction in cell viability incubated for 3 days in presence of olaparib by MTT assay; assay type: functional, cell-based; conditions: MCF7, 72 h
A549 [40] = experiment: Synergistic antiproliferative activity against ATM-proficient human A549 cells assessed as reduction in cell viability incubated for 3 days in presence of oxaliplatin by MTT assay; assay type: functional, cell-based; conditions: A549, 72 h
SW-620 = experiment: Antiproliferative activity against ATM-deficient human SW620 cells assessed as reduction in cell viability incubated for 3 days by MTT assay; assay type: functional, cell-based; conditions: SW-620, 72 h
A549 [41] = experiment: Synergistic antiproliferative activity against ATM-proficient human A549 cells assessed as reduction in cell viability incubated for 3 days in presence of cisplatin by MTT assay; assay type: functional, cell-based; conditions: A549, 72 h

SMILES	CLint scaled at 1 h, 1 µM (in vitro [1])	half-life at 1 h, 1 µM (in vitro [3])	Activity (LoVo [4])	IC50 (LoVo [5])	microsomal CLint at 1 h, 1 µM (in vitro [10])	IC50 [11]	microsomal CLint at 1 h, 1 µM (in vitro [14])	half-life at 1 h, 1 µM (in vitro [16])	CLint scaled at 1 h, 1 µM (in vitro [18])	IC50 (HT-29 [20])	Activity (HT-29 [23])	also measured
C[C@@H]1COCCN1c1nc(-c2cccc3[nH]ccc23)nc2c1CN(C(=O)c1ccc(S(C)(=O)=O)cc1)C2(C)C	12.7 mL/min/kg	3.28 h	Dose-Dependent Effect	92 nM	7.06 µL/min/mg	4 nM	53.9 µL/min/mg	0.428 h	50.9 mL/min/kg	449 nM	Dose-Dependent Effect	AUC(0-inf) [2]: 646 ng·h/mL; Cmax [6]: 24.1 ng/mL; AUC(0-inf) [7]: 203 ng·h/mL; MRT inf [8]: 6.99 h; AUC(0-t) at 24 h [9]: 185 ng·h/mL; AUC(0-t) at 24 h [12]: 603 ng·h/mL; Vd [13]: 10.8 L/kg; bioavailability [15]: 6.1%; MRT last at 24 h [17]: 5.21 h; Tmax [19]: 2 h; half-life [21]: 4.38 h; half-life [22]: 5.49 h; MRT last at 24 h [24]: 5.56 h; MRT inf [25]: 7.1 h; clearance [26]: 26 mL/min/kg
CC(=O)c1ccc(C(=O)N2Cc3c(N4CCOC[C@H]4C)nc(-c4cccc5[nH]ccc45)nc3C2(C)C)cc1	51.4 mL/min/kg	0.812 h	Dose-Dependent Effect	96 nM	28.5 µL/min/mg	6 nM	281 µL/min/mg	0.0823 h	265 mL/min/kg	307 nM	Dose-Dependent Effect	
CC(=O)c1cccc(C(=O)N2Cc3c(N4CCOC[C@H]4C)nc(-c4cccc5[nH]ccc45)nc3C2(C)C)c1	218 mL/min/kg	0.192 h	Dose-Dependent Effect	112 nM	121 µL/min/mg	4 nM	339 µL/min/mg	0.0685 h	320 mL/min/kg	431 nM	Dose-Dependent Effect	
O=C(c1cc(Cc2n[nH]c(=O)c3ccccc23)ccc1F)N1CCN(C(=O)C2CC2)CC1 [OLAPARIB]												IC50 (MDA-MB-231 [27]): 73300 nM; IC50 (MCF7 [28]): 18600 nM
CC(C)n1c(=O)n(C)c2cnc3cc(F)c(-c4ccc(OCCCN5CCCCC5)nc4)cc3c21 [AZD-1390]										> 30000 nM		IC50 (A549 [29]): 43000 nM; IC50 (HCT-116 [30]): 10500 nM
C[C@@H]1COCCN1c1nc(-c2cccc3[nH]ccc23)nc2c1CCN(S(C)(=O)=O)C2(C)C						18 nM						inhibition [31]: 88.7%; IC50 [32]: 157 nM
CC(=O)N1CCc2c(N3CCOC[C@H]3C)nc(-c3cccc4[nH]ccc34)nc2C1(C)C	110 mL/min/kg	0.378 h		1260 nM	61.4 µL/min/mg	13 nM	123 µL/min/mg	0.188 h	116 mL/min/kg	4610 nM		inhibition [31]: 89.9%; IC50 [32]: 13 nM
C[C@@H]1COCCN1c1cc(C2(S(C)(=O)=O)CC2)nc(-c2cccc3[nH]ccc23)n1				231 nM						644 nM		IC50 (HCT-116 [33]): 137 nM; IC50 (A549 [29]): 734 nM; IC50 (HCT-116 [34]): 92 nM; IC50 (HT-29 [35]): 72 nM; IC50 (A549 [36]): 495 nM; IC50 (HCT-116 [37]): 151 nM; IC50 (MDA-MB-231 [38]): 254 nM; IC50 (OVCAR-3): 563 nM; IC50 (MDA-MB-231 [27]): 2970 nM; IC50 (MCF7 [28]): 2310 nM; IC50 (MCF7 [39]): 1220 nM; IC50 (A549 [40]): 333 nM; IC50 (SW-620): 727 nM; IC50 (HCT-116 [30]): 260 nM; IC50 (A549 [41]): 481 nM
